Publication PMC10354055, “An optimized Nurr1 agonist provides disease-modifying effects in Parkinson’s disease models” (Nature Communications, 2023)
Values joined by “and” are separate entries in the source; they are usually repeats but may differ in a detail not shown here. Identical values can stand only once.

Columns and labels:
[1] = target: T1, Nurr1-LBD (Mus musculus, UniProt Q06219); test: Luciferase reporter assay, Nurr1-LBD, N27-A cells; type: cell-based; details: for EC50: Supplementary Fig. 1d,e
T1 construct: transfected with pCMV-fNurr1, pGAL-Nurr1(LBD), pGAL-Nor1(LBD) or pGAL-Nur77(LBD) and reporter construct; expressed in transfected cells; host or cells: SK-N-BE(2)C (human neuroblastoma), N27-A (rat dopaminergic), MN9D (murine dopaminergic)
Description: (§1) Nurr1 transactivity was normalized to β-galactosidase activity.

[2] = system: Nurr1 protein; test: Nurr1 protein level, Western blot, MN9D cells with MPP+ or αSyn overexpression; type: cell-based, mouse; details: for Relative Nurr1 expression (% of Cont.): Fig. S4g; for Relative Nurr1 expression (% of +GFP Basal): Fig. S4i
Procedure: (§2) Experiments were confirmed by duplicate measurements of the same sample. Quantification of immunoreactive bands was performed using ImageJ software (NIH, Bethesda, MD, USA) and expressed as a relative ratio against β-actin.
Lenti-GFP, -αSyn^WT, and -αSyn^A53T viruses were generated separately by co-transfecting each shuttle plasmid with lentivirus packaging plasmids into HEK293T cells using lipofectamine 2000 (Invitrogen). Briefly, 2 μg each FUW inducible shuttle plasmid, 2 μg FUW-rtTA, 2 μg psPax2 and 1.5 μg MD2.G were mixed and transfected into HEK293T cells. After 48 h, viral supernatants were collected and centrifuged at 1000g for 10 min, and subsequently filtered through a 0.45 μm filter. Lentiviruses were transduced into MN9D cells with 8 μg/ml of polybrene and the viral supernatant was removed and replaced with fresh medium a day after transduction.

[3] = system: HeLa cells; test: Autophagolysosome (APL) formation assay, mRFP-GFP-LC3, HeLa cells; type: cell-based; details: CQ 20 µM, 4A7C-301 1 µM; for percentage of red dots among total LC3 dots: EBSS 6 h; for APL formation / autophagy (in words): EBSS, BafA1 10 nM
Procedure: as §1
HeLa and N27-A cells were transfected with tandem mRFP-GFP-LC3 (Addgene) plasmid using Lipofectamine 2000 (Invitrogen) in 24-well plates. After 24 h, cells were incubated in starvation medium (Earle’s Balanced Salt Solution, EBSS; Lonza) containing bafilomycin A1 (BafA1, 10 nM), CQ (20 µM), or 4A7C-301 (1 µM) for 6 h and then fixed with 4% formaldehyde for fluorescence detection. Images were taken using a KEYENCE microscope and red (mRFP) LC3 dots and yellow (mRFP+GFP) LC3 dots were counted from three independent wells for each treatment group. 10 cells were randomly selected and counted from each well and a total of 30 cells were analyzed for each treatment group in both HeLa and N27-A cells.

[4] = system: HeLa cells; test: Autophagic flux, Western blot LC3B and p62, HeLa cells; type: cell-based; details: for autophagic flux (in words): HeLa; for Relative LC3B-II experession (normalized to β-actin): Supplementary Figure S7f; for Relative p62 experession (normalized to β-actin): Supplementary Figure S7g; for Relative LC3B-II expression (normalized to β-actin): Supplementary Figure S7i; for Relative p62 expression (normalized to β-actin): Supplementary Figure S7j
Procedure: as §2
The band intensities were quantified using ImageJ and normalized against β-actin.

[5] = system: AAV-αSyn-induced male mice; test: Rotarod, AAV-αSyn-induced PD model mice; type: in vivo, mouse; details: αSynWT and αSynA53T mice; CQ 40, 4A7C-301 5 mg/kg/day i.p.
Description: Adeno-associated viruses (AAVs) expressing GFP only or αSyn (wild-type or A53T) were kindly provided by Dr. Yoon Seong Kim from the University of Central Florida. Recombinant AAV vectors were produced using modified pAAV-IRES-hrGFP (Agilent) to express wild-type and mutant human αSyn under control of the CMV promoter. Viral particles (AAV2) were produced at the University of Iowa Viral Vector Core according to standard operating procedures (https://medicine.uiowa.edu/vectorcore/). […] AAV vectors were delivered into the substantia nigra unilaterally by stereotaxic surgery.
Mice were pre-trained on an automated 5-lane rotarod unit (10 rpm, 3 min) for 2 days and the baseline was measured (10 rpm, 90 sec) before the rotarod test (3 days before the MPTP injection or the first rotarod test at week 2). Rotarod measurements were performed using an accelerating protocol, accelerated smoothly from 2 to 30 rpm for 5 min. Time on the rotating rod was measured automatically by placing a trip switch under the floor beneath the rotating drum.

[6] = against MPP+ and αSynWT overexpression

T1 sequence (Q06219 360-595 limits assumed): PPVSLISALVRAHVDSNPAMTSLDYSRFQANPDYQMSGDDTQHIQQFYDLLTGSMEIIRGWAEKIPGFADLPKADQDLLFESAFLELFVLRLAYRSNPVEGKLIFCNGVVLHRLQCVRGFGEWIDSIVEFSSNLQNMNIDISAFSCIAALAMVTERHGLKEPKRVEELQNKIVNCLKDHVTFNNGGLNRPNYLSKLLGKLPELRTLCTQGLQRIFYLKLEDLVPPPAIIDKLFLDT

CCN1CCN(c2cc(N3CCN(CC)CC3)nc(NCCNc3ccnc4cc(Cl)ccc34)n2)CC1 [4A7C-301, N^1-(4,6-bis(4-ethylpiperazin-1-yl)pyrimidin-2-yl)-N^2-(7-chloroquinolin-4-yl)ethane-1,2-diamine]
potency relative to CQ [1]: approximately 50 times
EC50 [1]: ~0.2 µM
Relative Nurr1 expression (% of Cont.) ([2]; w/ MPP+): 99.091 % of Cont. and 100.486 % of Cont. and 100.693 % of Cont.
Relative Nurr1 expression (% of Cont.) ([2]; w/o MPP+): 101.351 % of Cont. and 99.92 % of Cont. and 104.55 % of Cont.
Relative Nurr1 expression (% of +GFP Basal) ([2]; + GFP): 98.029 % of +GFP Basal and 101.483 % of +GFP Basal and 98.211 % of +GFP Basal
Relative Nurr1 expression (% of +GFP Basal) ([2]; + αSynA53T): 84.572 % of +GFP Basal and 86.142 % of +GFP Basal and 86.409 % of +GFP Basal
Relative Nurr1 expression (% of +GFP Basal) ([2]; + αSynWT): 92.781 % of +GFP Basal and 95.357 % of +GFP Basal and 90.953 % of +GFP Basal
Nurr1 protein levels (in words) [2, 6]: significantly restored
Nurr1 protein levels (in words) ([2]; against αSynA53T overexpression): maintained
percentage of red dots among total LC3 dots [3]: 63.9%
APL formation / autophagy (in words) [3]: did not inhibit
autophagic flux (in words) ([4]; 10-times higher concentrations than 1 µM): did not inhibit autophagy
autophagic flux (in words) ([4]; LC3B-II and p62): completed
Relative LC3B-II experession (normalized to β-actin) ([4]; time 0h): 0.384 and 0.423 and 0.339
Relative LC3B-II experession (normalized to β-actin) ([4]; time 0.5h): 0.455 and 0.539 and 0.396
Relative LC3B-II experession (normalized to β-actin) ([4]; time 1h): 0.533 and 0.561 and 0.521
Relative LC3B-II experession (normalized to β-actin) ([4]; time 2h): 0.526 and 0.509 and 0.466
Relative LC3B-II experession (normalized to β-actin) ([4]; time 4h): 0.415 and 0.449 and 0.331
Relative p62 experession (normalized to β-actin) ([4]; time 0h): 0.809 and 0.904 and 0.909
Relative p62 experession (normalized to β-actin) ([4]; time 0.5h): 0.889 and 0.886 and 0.829
Relative p62 experession (normalized to β-actin) ([4]; time 1h): 0.800 and 0.736 and 0.720
Relative p62 experession (normalized to β-actin) ([4]; time 2h): 0.670 and 0.672 and 0.687
Relative p62 experession (normalized to β-actin) ([4]; time 4h): 0.552 and 0.570
Relative LC3B-II expression (normalized to β-actin) ([4]; Conc. 1 µM): 0.5044 and 0.5121 and 0.5349
Relative LC3B-II expression (normalized to β-actin) ([4]; Conc. 10 µM): 0.4913 and 0.4289 and 0.4955
Relative p62 expression (normalized to β-actin) ([4]; Conc. 1 µM): 0.2532 and 0.2036 and 0.1875
Relative p62 expression (normalized to β-actin) ([4]; Conc. 10 µM): 0.2002 and 0.2111 and 0.1727
motor deficits, rotarod (latency to fall) (in words) [5]: improved motor deficits

CCN(CC)CCCC(C)Nc1ccnc2cc(Cl)ccc12 (stereo not shown) [CQ, chloroquine]
EC50 [1]: ~10 µM
Nurr1 protein levels (in words) [2, 6]: significantly restored
percentage of red dots among total LC3 dots [3]: 21.7%
APL formation / autophagy (in words) [3]: significantly inhibited
autophagic flux (in words) ([4]; LC3B-II and p62): failed to terminate
motor deficits, rotarod (latency to fall) (in words) [5]: partial recovery
